The text below walks through data of paper PMC6733504, “Effects of flavoring compounds used in electronic cigarette refill liquids on endothelial and vascular function” (PLoS ONE, 2019).

pEC50: −log10 of the molar value.

The test system of test [1] is rat aortic rings. As to the kind of experiment: Relaxation of U-46619 precontracted aortic rings to DEA/NO. Particulars: read-out: EC50 of vascular relaxation to DEA/NO. The method, then:
(§1) Animal experiments were performed in compliance with the Austrian law on experimentation with laboratory animals (last amendment 2013) based on the European Union guidelines for the Care and the Use of Laboratory Animals (European Union Directive 2010/63/EU). Unsexed Sprague-Dawley rats (obtained from Charles River, Sulzfeld, Germany) were housed at the local animal facility in approved cages. They were fed standard chow (Altromin 3023; obtained from Königshofer Futtermittel, Ebergassing, Austria) and received water ad libitum. Animals were euthanized in a box that was gradually filled with CO2 until vital signs had ceased (cessation of respiration and circulation). […]
(§2) For isometric tension measurements, vessel rings with intact endothelium were suspended in 5-ml organ baths containing oxygenated Krebs-Henseleit buffer (concentrations in mM: NaCl 118.4, NaHCO3 25, KCl 4.7, KH2PO4 1.2, CaCl2 2.5, MgCl2 1.2, D-Glucose 11; pH 7.4), as previously described in detail. After equilibration for 60 min at the optimal resting tension of 20 mN, maximal contractile activity was determined with a depolarizing solution containing 60 mM K^+. […]
(§3) Effects are expressed as percent of relaxation of U-46619-induced contraction. Concentration-response curves of different ring segments from a single animal were averaged and counted as an individual experiment.

The test system of test [2] is endothelium-denuded rat aortic rings. Description: cAMP and cGMP levels in endothelium-denuded aortic rings. The following applies: 10 µM. The source says: 1 S4 Table. […]
2 endothelium-denuded rat aortic rings.
Flavoring (fmol x mg-1) (fmol x mg-1)
4 En d o th e liu m-denuded rings, treated with test compounds as described in the
5 Materials and methods section of the main text, were freeze-clamped when maximal
6 relaxation had been reached. Rings were homogenized in 5% trichloroacetic acid
7 and analyzed for cAMP and cGMP by radioimmunoassay. Forskolin and DEA/NO
8 were used to induce maximal accumulation of cAMP and cGMP, respectively. Data
9 shown are mean values±SEM of 3 (forskolin and DEA/NO) or 6 (basal,
10 cinnamaldehyde and eugenol) rings; n.d., not determined, *p<0.05 vs. basal (ANOVA
11 and Dunnett's post hoc test).

Test [3] deals with T1, soluble guanylate cyclase (sGC) (Bos taurus, UniProt P16068+P19687).
T1 construct: The activity of sGC purified from bovine lung; from tissue; host or cells: bovine lung
T1 sequence (P19687 1-691): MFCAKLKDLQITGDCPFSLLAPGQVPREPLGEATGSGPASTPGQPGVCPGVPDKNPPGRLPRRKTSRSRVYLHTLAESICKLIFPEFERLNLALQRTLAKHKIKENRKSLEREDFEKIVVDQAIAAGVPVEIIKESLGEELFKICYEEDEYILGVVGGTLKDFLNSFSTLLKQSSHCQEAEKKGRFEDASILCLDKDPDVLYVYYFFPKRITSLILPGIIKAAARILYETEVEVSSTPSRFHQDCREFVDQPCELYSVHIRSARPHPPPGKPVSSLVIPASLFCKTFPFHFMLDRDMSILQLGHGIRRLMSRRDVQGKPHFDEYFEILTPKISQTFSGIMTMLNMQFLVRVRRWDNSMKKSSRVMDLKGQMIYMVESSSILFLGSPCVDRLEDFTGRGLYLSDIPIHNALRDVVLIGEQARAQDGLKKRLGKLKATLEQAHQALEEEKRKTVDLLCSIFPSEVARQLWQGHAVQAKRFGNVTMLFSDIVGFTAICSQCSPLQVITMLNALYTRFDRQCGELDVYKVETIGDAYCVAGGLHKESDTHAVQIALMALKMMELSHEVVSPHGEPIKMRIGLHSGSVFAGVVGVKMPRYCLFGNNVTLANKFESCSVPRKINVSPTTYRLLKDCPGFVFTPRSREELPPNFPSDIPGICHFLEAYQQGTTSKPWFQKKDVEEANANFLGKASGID
T1 sequence (P16068 1-619): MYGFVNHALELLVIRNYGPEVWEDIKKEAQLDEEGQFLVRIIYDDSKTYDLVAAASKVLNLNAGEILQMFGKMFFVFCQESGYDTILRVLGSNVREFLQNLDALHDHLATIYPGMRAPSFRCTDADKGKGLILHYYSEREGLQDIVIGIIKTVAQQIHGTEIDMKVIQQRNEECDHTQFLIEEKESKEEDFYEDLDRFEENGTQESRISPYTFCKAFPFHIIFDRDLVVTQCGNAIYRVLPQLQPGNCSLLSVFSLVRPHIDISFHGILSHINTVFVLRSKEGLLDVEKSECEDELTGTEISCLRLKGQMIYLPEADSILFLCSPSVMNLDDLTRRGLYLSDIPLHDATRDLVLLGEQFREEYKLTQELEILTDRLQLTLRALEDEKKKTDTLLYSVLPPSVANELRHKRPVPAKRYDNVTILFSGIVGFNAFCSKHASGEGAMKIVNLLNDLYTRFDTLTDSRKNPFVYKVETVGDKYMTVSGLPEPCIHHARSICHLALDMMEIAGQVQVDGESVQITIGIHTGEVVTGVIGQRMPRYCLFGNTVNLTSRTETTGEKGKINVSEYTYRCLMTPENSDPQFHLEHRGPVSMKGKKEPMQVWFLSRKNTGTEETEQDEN
As to the kind of experiment: Activity of purified sGC stimulated with DEA/NO. Type of test: biochemical, bovine. Particulars: control. The method, then: The activity of sGC purified from bovine lung was determined as formation of [^32P]cGMP from [α-^32P]GTP. The purified enzyme (50 ng) was incubated at 37°C for 10 min in a final volume of 0.1 ml in the absence or presence of flavorings with the NO donor DEA/NO at concentrations indicated in the figure legends, followed by isolation of [^32P]cGMP and quantification of radioactivity (Cerenkov radiation) in a β counter.
To test for reversibility of inhibition, sGC (50 ng) was preincubated in the absence or presence of the respective compounds for 5 minutes at 37°C, followed by 50-fold dilution in the assay mixtures and incubation with DEA/NO at 37°C for 10 minutes.

Test [4] concerns rat aortic rings. As to the kind of experiment: Relaxation of U-46619 precontracted aortic rings to acetylcholine. The following applies: vehicle, no flavoring, 95% CI, read-out: EC50 of vascular relaxation to acetylcholine. The method, then: as §1, §2, §3

Consider `CCN(CC)[N+]([O-])=NO` [DEA/NO, 2,2-Diethyl-1-nitroso-oxyhydrazine, reference compound], for which the pEC50 is 7.37 in the test on rat aortic rings [1] and 7.43 in test [3] (no flavoring (0.1% DMSO), 95% CI, read-out: EC50 of DEA/NO for sGC stimulation). In addition, in test [2], the cGMP is 4917±1483 fmol x mg-1. The “Maximal sGC activity with DEA/NO” value in test [3] (no flavoring) was 28±0.9 μmol cGMP x min^-1 x mg^-1.

Regarding `CC(=O)OCC[N+](C)(C)C` [acetylcholine], the pEC50 in the test on rat aortic rings [4] was 7.26.
